Measurements: PubChem BioAssay (NCI)
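Cells were grown in 96-well plates and exposed to each compound for 48 hours at five concentrations; endpoints were interpolated linearly between bracketing concentrations, or set to the highest concentration if not reached. The concentration for 50% growth inhibition is given as GI50. TGI is the concentration that stops growth completely.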

Columns and labels:
Test in all cases: NCI anticancer screen, dose series, 48 h
ACHN renal = test system: ACHN renal
CCRF-CEM leukemia = test system: CCRF-CEM leukemia
HOP-62 NSCLC = test system: HOP-62 NSCLC
HOP-92 NSCLC = test system: HOP-92 NSCLC
HS 578T breast = test system: HS 578T breast
NCI-H460 lung = test system: NCI-H460 lung
RXF 393 renal = test system: RXF 393 renal
SF-295 CNS = test system: SF-295 CNS
SK-MEL-28 melanoma = test system: SK-MEL-28 melanoma
SNB-19 CNS = test system: SNB-19 CNS

SMILES | GI50 (ACHN renal) [nM] | TGI (ACHN renal) [µM] | GI50 (CCRF-CEM leukemia) [nM] | TGI (CCRF-CEM leukemia) [µM] | GI50 (HOP-62 NSCLC) [nM] | TGI (HOP-62 NSCLC) [µM] | GI50 (HOP-92 NSCLC) [nM] | TGI (HOP-92 NSCLC) [µM] | GI50 (HS 578T breast) [nM] | TGI (HS 578T breast) [µM] | GI50 (NCI-H460 lung) [nM] | TGI (NCI-H460 lung) [µM] | GI50 (RXF 393 renal) [nM] | TGI (RXF 393 renal) [µM] | GI50 (SF-295 CNS) [nM] | TGI (SF-295 CNS) [µM] | GI50 (SK-MEL-28 melanoma) [nM] | TGI (SK-MEL-28 melanoma) [µM] | GI50 (SNB-19 CNS) [nM] | TGI (SNB-19 CNS) [µM]
O=C(/C=C\n1cnc(-c2cc(C(F)(F)F)cc(C(F)(F)F)c2)n1)NNc1cnccn1 | 113 | 13 | 106 | > 100 | 289 | 15.7 | 94 | 9.21 | 231 | 25.7 | 37 | 3.14 | 28 | 0.225 | 53.4 | 11.2 | 67.2 | 11 | 142 | 13.4
CS(=O)(=O)c1cc(=O)c2ccccc2s1 |  | 5.68 |  | 3.93 |  | 41.3 |  | 3.71 |  | 68.8 |  | 41.2 |  | 9.05 |  | 24.8 |  | 7.5 |  | 36.5
Nc1nc(-c2cccc(Cl)c2)c(-c2ccc3ncccc3n2)s1 | > 25000 | > 25 | > 25000 | > 25 | > 25000 | > 25 | > 24000 | > 25 | > 25000 | > 25 | > 25000 | > 25 | > 25000 | > 25 | > 25000 | > 25 | > 25000 | > 25 | > 25000 | > 25
O=C(O)[C@@H]1CCCCN1Cc1cc2cc3c(cc2c2cc(OCc4ccccc4)ccc12)OCO3 | 2730 | 10.3 | 14900 | > 100 | 16100 | 31.6 | 14700 | 41.5 | 2290 | 6.94 | 1490 | 3.39 | 6050 | 22.6 | 1950 | 8.3 | 2210 | 7.28 | 2310 | 8.86
COc1ccc(OC)c(C(=O)c2oc3ccc(Br)cc3c2N)c1 | 627 | > 65.1 | 332 | 24.1 | 490 | > 50.6 | 1710 | 38.1 | 403 | > 64.8 | 375 | 12.4 | 300 | 1.69 | 286 | 2.61 | 610 | 26.2 | 901 | > 100
COC(=O)c1c(C)[nH]c(/C=C2\N=C(c3ccc[nH]3)C=C2OC)c1C | 189 | 1.43 | 50.1 | > 100 | 769 |  | 169 | 0.711 | 693 |  | 147 | > 100 | 515 | 4.27 | 983 | 3.44 | 685 | 2.36 | 1870 | > 100
COc1cc2c(c(OC)c1OC)-c1c(cc3c(c1OC)OCO3)C1OC2C(C)C1C (stereo not drawn) (tested in a mixture with another compound) |  | > 100 |  | > 100 |  | > 100 |  | > 100 |  | > 100 |  | > 100 |  | > 100 |  | > 100 |  | > 100 |  | > 100
C=C1CC[C@@H]2[C@](C)(COC(C)=O)[C@H](OC(C)=O)CC[C@@]2(C)[C@@H]1CC(Nc1ccc(S(=O)(=O)Nc2ncccn2)cc1)C1=CCOC1=O (stereo partly drawn) | 1720 | 3.27 | 738 | 3.41 | 3020 | 6.44 | 3100 | 8.85 | 3540 | 24.4 | 1980 | 4.06 | 1950 | 3.58 | 6070 | 18.7 | 1690 | 3.24 | 1630 | 3.76
CCc1oc2ccccc2c1C(=O)c1cc(I)c(O)c(I)c1 | 4870 | 18.2 | 2050 | 15.4 | 5850 | 20.3 | 1040 | 7.73 | 2220 | 7.41 | 2630 | 8.94 | 2980 | 16 | 2050 | 7.65 | 8450 | 21.6 | 5190 | 18.9
Cc1ccc(C(=O)Nc2ccc(CN3CCN(C)CC3)c(C(F)(F)F)c2)cc1C#Cc1cnc(N)c2ccccc12 | 133 | 0.631 | 622 | 3.04 | 849 | 2.13 | 506 | 2.08 | 647 | 2.07 | 320 | 1.08 | 285 | 1.06 | 785 | 1.69 | 479 | 1.15 | 769 | 1.47
O=C(/C(=C/c1cccc([N+](=O)[O-])c1)c1ccccc1)c1ccccc1 | 2300 | 5.41 | 2170 | 27.8 | 2870 | 7.56 | 1970 | 6.95 | 3890 | > 100 | 3320 | 12.6 | 3390 | 9.06 | 4080 | 20.2 | 2840 | 8.97 | 5150 | 19.7
C=C1C(=O)O[C@H]2[C@H]1CC/C(COC(=O)c1cc3ccccc3s1)=C\CC[C@@]1(C)O[C@@H]21 | 1500 | 2.93 | 403 | 2.45 | 1810 | 3.42 | 1680 | 3.49 | 2890 | 8.52 | 2200 | 5.55 | 1230 | 2.66 | 3330 | 12.8 | 1760 | 3.57 | 2090 | 4.97
O=C1/C(=C/c2ccc(O)cc2)CSc2ccc(Cl)cc21 | 11900 | 24.3 | 580 | > 100 | 14200 | 45 | 21700 | > 100 | 2900 | 7.36 | 17700 | 39.2 | 17900 | 37.7 | 18200 | 40.1 | 4040 | 15.8 | 14100 | 27.4
Cn1c2ccccc2c2c3[nH]c(=O)[nH]c(=O)c3c3c4ccccc4n(C)c3c21 | 1330 | 6.62 | 3730 | > 100 | 2030 | 5.83 | 3400 | 14.6 | 2440 | 8.21 | 3090 | > 100 | 1740 | 5.25 | 10500 | 27.8 | 4500 | > 100 | 3800 | 21.4
Cc1nc(-c2ccccc2)c(-c2ccccc2)s1 |  | 97.9 |  | 40.3 |  | > 100 |  | 83.6 |  | 47.2 |  | 42.2 |  | 49.8 |  | > 100 |  | > 100 |  | > 100
Cc1ccc(NC(=O)NCCCOc2ccc(N3C(N)=NC(N)=NC3(C)C)cc2Cl)cc1S(=O)(=O)F | 49300 | > 100 | 9690 | > 100 | 9460 | > 100 | 18900 | 75.1 | 16700 | > 100 | 1680 | > 100 | 98300 | > 100 | 26500 | > 100 | 11600 | > 100 | 6040 | > 100
C/C(=N\Nc1ccc(Cl)cn1)c1ccccn1 | 42 | 27.1 | 27.3 | > 100 | 167 | > 42.1 | 134 | 33.9 | 616 | > 73.8 | 268 | 11.2 | 188 | 24.9 | 262 | 5.18 | 250 | > 100 | 411 | > 100
CC[C@H](C)[C@H]1O[C@]2(C=C[C@@H]1C)C[C@@H]1C[C@@H](C/C=C(\C)[C@@H](O[C@H]3C[C@H](OC)[C@@H](O[C@H]4C[C@H](OC)[C@@H](NC)[C@H](C)O4)[C@H](C)O3)[C@@H](C)/C=C/C=C3\CO[C@@H]4[C@H](O)C(C)=C[C@@H](C(=O)O1)[C@]34O)O2 | 2730 | 10.8 | 1870 | 4.02 | 1750 | 4 | 2120 | 9.67 | 2310 | 6.56 | 1840 | 3.63 | 2030 | 4.47 | 2600 | 8.17 | 1730 | 3.47 | 4270 | 16.9
CSc1nc2cc(S(=O)(=O)N3CCCCC3)ccc2s1 |  | > 100 |  | > 100 |  | > 100 |  | > 100 |  | > 100 |  | > 100 |  | > 100 |  | > 100 |  | > 100 |  | > 100
Cn1cnc([N+](=O)[O-])c1[Se]c1nc(N)nc2c1ncn2C1OC(CO)C(O)C1O (stereo not drawn) |  | > 100 |  | > 100 |  | > 100 |  | > 100 |  | > 100 |  | > 100 |  | > 100 |  | > 100 |  | > 100 |  | > 100
CCN(CC)CCCC(C)Nc1cnc(C(=O)Nc2cccc3ccc(OC)nc23)cn1 (stereo not drawn) | 1830 | 3.48 | 2740 | 8.11 | 1830 | 3.71 | 6930 | 21.9 | 11000 | 28.5 | 2120 | 4.66 | 1250 | 2.86 | 15000 | 29.9 | 1740 | 3.13 | 3110 | 10.9
CCCCN1CSC(=S)N(Cc2ccccc2)C1 |  | > 100 |  | 32.9 |  | > 100 |  | > 100 |  | > 100 |  | > 94.3 |  | > 100 |  | > 100 |  | > 100 |  | > 100
COc1ccc(C2SCC(=O)N2NC(=O)Nc2c(C)nc3ccccn23)cc1 (stereo not drawn) | 21900 | 47.3 | > 100000 | > 100 | 16400 | 31.1 | 16600 | 37.5 | 41300 | > 100 | 90500 | > 100 | 26400 | 69.3 | 24500 | 57.3 | > 100000 | > 100 | 21700 | 47.3
O=c1[nH]c(=O)n(C2OC(CO)C(O)C(O)C2O)cc1F (stereo not drawn) |  | > 100 |  | > 100 |  | > 100 |  | > 100 |  | > 100 |  | > 100 |  | > 100 |  | > 100 |  | > 100 |  | > 100
COc1cc2c3c(n(C)c(=O)c2cc1OC)-c1cc2c(cc1/C3=C\CNCCCN)OCO2 | 271 | 2.07 | 23.9 | 0.15 | 625 | 10.9 | 174 | 1.27 | 1280 | 6.06 | 750 | 12.9 | 1690 | 7.1 | 1080 | 15.9 | 2140 | 39.6 | 261 | 10.4
N#Cc1cccc(NC(=O)c2cc(-c3ccc(F)cc3F)ccc2O)c1 | 2560 | 7.89 | 3070 | 47.7 | 2970 | 11 | 294 | 2.43 | 2310 | 8.91 | 2750 | 11.2 | 2690 | 7.63 | 2160 | 5.19 | 2070 | 14.8 | 2630 | 18.4
